Data as given in the supplement of paper PMC6045584.
± gives the standard deviation of the averaged measurements.

Legend:
AZD4547 = compound: COc1cc(CCc2cc(NC(=O)c3ccc(N4CC(C)NC(C)C4)cc3)n[nH]2)cc(OC)c1 [AZD4547]; experiment: surviving fraction relative to DMSO-only wells; higher = less growth inhibition; details: exposure time: 5 days
Summary of the method: (§1)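 Tumour cell lines were seeded in log phase at 250–500 cells per well into 384-well plates. Starting 24 hours later, inhibitors were present continuously for five days at 0.5, 1, 5, 10, 50, 100, 500 and 1000 nM. Surviving fraction, from CellTiter-Glo luminescence, is normalised to the median of DMSO-only wells. Three screens per line were required, with replicate Pearson r >0.7 and median Z' >0.3 for a line to be kept.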

MK2206 = compound: NC1(c2ccc(-c3nc4ccn5c(=O)[nH]nc5c4cc3-c3ccccc3)cc2)CCC1 [MK2206]; experiment: as above; details: exposure time: 5 days
Summary of the method: as §1

Test System | surviving fraction (AZD4547; 0.5 nM) | surviving fraction (AZD4547; 1 nM) | surviving fraction (AZD4547; 5 nM) | surviving fraction (AZD4547; 10 nM) | surviving fraction (AZD4547; 50 nM) | surviving fraction (AZD4547; 100 nM) | surviving fraction (AZD4547; 500 nM) | surviving fraction (AZD4547; 1000 nM) | surviving fraction (MK2206; 0.5 nM) | surviving fraction (MK2206; 1 nM) | surviving fraction (MK2206; 5 nM) | surviving fraction (MK2206; 10 nM) | surviving fraction (MK2206; 50 nM) | surviving fraction (MK2206; 100 nM) | surviving fraction (MK2206; 500 nM) | surviving fraction (MK2206; 1000 nM)
OSHN BONE | 1.06 ± 0.02 | 1.09 ± 0.044 | 1.09 ± 0.044 | 1.11 ± 0.048 | 1.07 ± 0.023 | 1.1 ± 0.044 | 1.07 ± 0.042 | 1.06 ± 0.011 | 1.08 ± 0.018 | 1.12 ± 0.034 | 1.08 ± 0.021 | 1.12 ± 0.052 | 1.05 ± 0.046 | 1.09 ± 0.038 | 1.04 ± 0.051 | 1.09 ± 0.086
PCI30 HEADNECK | 0.998 ± 0.026 | 0.966 ± 0.082 | 1.09 ± 0.12 | 1.09 ± 0.094 | 1.16 ± 0.061 | 1.17 ± 0.11 | 1.1 ± 0.012 | 0.999 ± 0.07 | 0.999 ± 0.021 | 1.03 ± 0.13 | 1.01 ± 0.027 | 1.07 ± 0.035 | 0.939 ± 0.039 | 0.874 ± 0.045 | 0.592 ± 0.033 | 0.483 ± 0.017
RDES SOFT TISSUE | 1.28 ± 0.16 | 1.29 ± 0.047 | 1.12 ± 0.084 | 1.1 ± 0.12 | 0.835 ± 0.13 | 0.813 ± 0.14 | 0.961 ± 0.16 | 1.04 ± 0.12 | 1.14 ± 0.04 | 1.27 ± 0.13 | 1.22 ± 0.074 | 1.13 ± 0.032 | 1.06 ± 0.062 | 1.17 ± 0.1 | 1.2 ± 0.066 | 1.104 ± 0.0067
S68 BREAST | 0.981 ± 0.08 | 1.04 ± 0.052 | 1.02 ± 0.25 | 1.1 ± 0.18 | 0.957 ± 0.23 | 1.53 ± 0.1 | 1.05 ± 0.035 | 0.684 ± 0.062 | 1.15 ± 0.26 | 0.874 ± 0.16 | 1.15 ± 0.22 | 1.14 ± 0.17 | 0.974 ± 0.22 | 0.619 ± 0.088 | 0.229 ± 0.028 | 0.156 ± 0.044
SAOS2 BONE | 1.046 ± 0.0017 | 1.077 ± 0.0081 | 1.14 ± 0.031 | 1.17 ± 0.085 | 1.16 ± 0.054 | 1.14 ± 0.051 | 0.92467 ± 0.00058 | 0.649 ± 0.023 | 1.08 ± 0.055 | 1.13 ± 0.041 | 1.15 ± 0.021 | 1.14 ± 0.044 | 0.965 ± 0.063 | 0.925 ± 0.041 | 0.676 ± 0.019 | 0.654 ± 0.038
SCC36 HEADNECK | 0.993 ± 0.053 | 1.07 ± 0.081 | 1.18 ± 0.17 | 1.09 ± 0.21 | 0.988 ± 0.07 | 1.01 ± 0.039 | 0.856 ± 0.029 | 0.687 ± 0.053 | 1.07 ± 0.037 | 1.11 ± 0.085 | 1.1 ± 0.084 | 1.18 ± 0.053 | 0.892 ± 0.025 | 0.936 ± 0.034 | 0.504 ± 0.044 | 0.378 ± 0.032
SCC47 HEADNECK | 0.967 ± 0.14 | 1.02 ± 0.066 | 1.02 ± 0.1 | 1.13 ± 0.069 | 1.08 ± 0.037 | 1.09 ± 0.091 | 1.03 ± 0.078 | 0.961 ± 0.074 | 1.03 ± 0.051 | 1.06 ± 0.047 | 1.14 ± 0.065 | 1.16 ± 0.046 | 1.04 ± 0.046 | 1.07 ± 0.052 | 0.935 ± 0.091 | 0.828 ± 0.045
SCC90 HEADNECK | 1.07 ± 0.095 | 1.06 ± 0.11 | 1.04 ± 0.17 | 1.09 ± 0.14 | 1.08 ± 0.038 | 1.15 ± 0.055 | 1.04 ± 0.043 | 1.1 ± 0.11 | 0.954 ± 0.027 | 1.01 ± 0.048 | 0.973 ± 0.073 | 1.12 ± 0.093 | 0.887 ± 0.011 | 0.935 ± 0.082 | 0.704 ± 0.071 | 0.586 ± 0.047
SG27 HEADNECK | 0.937 ± 0.05 | 0.959 ± 0.078 | 0.864 ± 0.027 | 0.82 ± 0.024 | 0.68 ± 0.069 | 0.791 ± 0.032 | 0.849 ± 0.027 | 0.943 ± 0.098 | 1.15 ± 0.065 | 1.17 ± 0.066 | 1.07 ± 0.056 | 1.05 ± 0.089 | 0.843 ± 0.18 | 0.949 ± 0.12 | 0.948 ± 0.043 | 0.932 ± 0.042
SG28 HEADNECK | 0.977 ± 0.13 | 1.14 ± 0.023 | 1.07 ± 0.093 | 0.982 ± 0.026 | 0.959 ± 0.048 | 1.04 ± 0.087 | 1.01 ± 0.077 | 0.706 ± 0.057 | 1 ± 0.1 | 1.16 ± 0.013 | 1.02 ± 0.14 | 1.05 ± 0.12 | 0.864 ± 0.061 | 0.852 ± 0.1 | 0.634 ± 0.0078 | 0.719 ± 0.059
SG31 HEADNECK | 1.21 ± 0.24 | 0.886 ± 0.12 | 0.994 ± 0.15 | 1.01 ± 0.17 | 0.836 ± 0.07 | 0.856 ± 0.12 | 0.883 ± 0.049 | 0.958 ± 0.051 | 1.24 ± 0.29 | 0.996 ± 0.022 | 1.1 ± 0.28 | 1.19 ± 0.2 | 0.945 ± 0.16 | 0.916 ± 0.2 | 0.901 ± 0.13 | 0.88 ± 0.12
SG32 HEADNECK | 0.915 ± 0.25 | 1 ± 0.15 | 0.925 ± 0.2 | 0.938 ± 0.083 | 1.04 ± 0.031 | 0.946 ± 0.032 | 0.968 ± 0.3 | 0.659 ± 0.056 | 1.04 ± 0.053 | 0.975 ± 0.3 | 1.08 ± 0.24 | 1.17 ± 0.19 | 1.51 ± 0.17 | 1.08 ± 0.13 | 0.964 ± 0.073 | 0.83 ± 0.1
SG43 HEADNECK | 1.02 ± 0.37 | 0.896 ± 0.17 | 0.714 ± 0.13 | 0.8 ± 0.13 | 0.759 ± 0.099 | 0.696 ± 0.14 | 0.94 ± 0.11 | 0.731 ± 0.074 | 1.19 ± 0.62 | 0.92 ± 0.097 | 0.894 ± 0.2 | 0.741 ± 0.14 | 0.653 ± 0.19 | 0.505 ± 0.073 | 0.465 ± 0.17 | 0.317 ± 0.089
SIHA CERVIX | 1.06 ± 0.037 | 1.08 ± 0.05 | 1.11 ± 0.066 | 0.985 ± 0.025 | 0.839 ± 0.079 | 0.895 ± 0.054 | 0.786 ± 0.06 | 0.785 ± 0.052 | 0.989 ± 0.041 | 1 ± 0.043 | 1.02 ± 0.092 | 1.04 ± 0.062 | 0.8803 ± 0.0068 | 0.876 ± 0.031 | 0.731 ± 0.013 | 0.719 ± 0.021
SJSA1 BONE | 1.01 ± 0.028 | 1.08 ± 0.08 | 1.08 ± 0.076 | 1.09 ± 0.046 | 1.14 ± 0.036 | 1.06 ± 0.05 | 1.01 ± 0.041 | 0.975 ± 0.075 | 0.752 ± 0.027 | 0.825 ± 0.033 | 0.907 ± 0.028 | 0.804 ± 0.032 | 1.66 ± 0.096 | 1.7 ± 0.048 | 1.66 ± 0.13 | 1.71 ± 0.15
SKBR3 BREAST | 1.07 ± 0.14 | 1.2 ± 0.05 | 1.04 ± 0.079 | 1.09 ± 0.13 | 1.15 ± 0.13 | 1.26 ± 0.13 | 1.16 ± 0.18 | 1.11 ± 0.13 | 0.983 ± 0.076 | 1.01 ± 0.16 | 0.942 ± 0.085 | 0.911 ± 0.032 | 0.724 ± 0.067 | 0.581 ± 0.028 | 0.368 ± 0.02 | 0.337 ± 0.015
SNU475 LIVER | 0.956 ± 0.021 | 1.02 ± 0.059 | 0.95 ± 0.024 | 0.972 ± 0.056 | 0.925 ± 0.047 | 0.948 ± 0.019 | 0.939 ± 0.053 | 0.894 ± 0.012 | 0.973 ± 0.037 | 1.04 ± 0.053 | 1.01 ± 0.027 | 0.983 ± 0.043 | 0.9 ± 0.024 | 0.891 ± 0.018 | 0.767 ± 0.03 | 0.653 ± 0.1
SUM44 BREAST | 0.9847 ± 0.0095 | 1.02 ± 0.029 | 0.985 ± 0.042 | 1.08 ± 0.064 | 1.11 ± 0.019 | 1.06 ± 0.011 | 1.09 ± 0.066 | 1.07 ± 0.05 | 1.09 ± 0.17 | 1.19 ± 0.28 | 1.14 ± 0.24 | 1.22 ± 0.31 | 0.993 ± 0.051 | 1.13 ± 0.21 | 1.02 ± 0.18 | 1.09 ± 0.34
SUM149 BREAST | 0.989 ± 0.054 | 1.05 ± 0.11 | 1.08 ± 0.017 | 1 ± 0.034 | 1.04 ± 0.072 | 0.989 ± 0.05 | 1.02 ± 0.073 | 0.916 ± 0.047 | 1.04 ± 0.049 | 1.05 ± 0.038 | 1.02 ± 0.058 | 0.997 ± 0.098 | 0.937 ± 0.036 | 0.953 ± 0.029 | 0.932 ± 0.082 | 0.872 ± 0.055
SUM149.B1*.S BREAST | 1.05 ± 0.013 | 1.083 ± 0.01 | 1.09 ± 0.04 | 1.09 ± 0.035 | 1.05 ± 0.083 | 1.07 ± 0.018 | 1.07 ± 0.054 | 1.07 ± 0.077 | 1.08 ± 0.057 | 1.14 ± 0.093 | 1.12 ± 0.034 | 1.09 ± 0.076 | 1.05 ± 0.058 | 1.07 ± 0.045 | 0.998 ± 0.056 | 1.06 ± 0.036
SUM159 BREAST | 1.16 ± 0.24 | 1.19 ± 0.22 | 1.15 ± 0.2 | 1.2 ± 0.23 | 1.15 ± 0.2 | 1.14 ± 0.2 | 1.22 ± 0.27 | 1.1 ± 0.15 | 1.08 ± 0.04 | 1.093 ± 0.0081 | 1.07 ± 0.024 | 1.11 ± 0.03 | 1.06 ± 0.015 | 1.08 ± 0.02 | 1.09 ± 0.029 | 1.08 ± 0.018
